Experimental data as given in publication PMC4240912, “Multifaceted interplay between lipophilicity, protein interaction and luminescence parameters of non-intercalative ruthenium(II) polypyridyl complexes controlling cellular imaging and cytotoxic properties” (Journal of Biological Inorganic Chemistry, 2014).
Read-outs that look alike come from different tables or passages of the source.

How the values were obtained:
[1] = aqueous solution, ref [11], cited from earlier work
[2] = system: 4T1 cells; assay: Ruthenium uptake / cell luminescence measured by flow cytometry; format: cell-based; settings: 4T1, [Ru-complex] = 2 µM, 24 h, medium without or with serum (2 %)
Method: 4T1 cells were seeded in a 24-well plate with a density of 2 × 10^5 cells per cm^2. 24 h after the seeding Ru(II) compounds were added at 2 µM concentration and incubated for 24 h in medium with or without serum (2 %). Then cells were washed with PBS, detached by trypsin treatment and analyzed by BDLSR cytometer with an excitation wavelength of 488 nm and an emission wavelength of 575 ± 13 nm.

Molecule	τ, luminescence lifetime ([1]; air-equilibrated conditions)	φ, quantum yield of luminescence ([1]; air-equilibrated conditions)	τ, luminescence lifetime ([1]; deoxygenated conditions)	φ, quantum yield of luminescence ([1]; deoxygenated conditions)	luminescence of cells (flow cytometry) [2]
O=[N+]([O-])c1nccn1CCCc1ccnc(-c2ccccn2)c1.[Ru+2].c1ccc(-c2ccnc3c2ccc2c(-c4ccccc4)ccnc23)cc1.c1ccc(-c2ccnc3c2ccc2c(-c4ccccc4)ccnc23)cc1 [[Ru(dip)2(bpy-NitroIm)]^2+]	810 ± 10 ns	0.0103 ± 0.0004	1.91 ± 0.01 µs	0.0341 ± 0.0004	–
[Ru(dip)2(1,3-dicyclohexyl-1-[4-carbonyl-(4′-methyl-2,2′-bipyridyl)]-urea)]Cl2 [[Ru(dip)2(CH3bpy-DCU)]^2+]	–	–	–	–	highest luminescence
